Experimental findings from patent publication US20060078961A1, “Systems and methods for rapidly changing the solution environment around sensors” (priority 2002, published 2006) are described below.

This assay has as its system PC-12 cell. The conditions noted are these: flow rate 3.24 mm/s, scanning speed 250 μm/s. From the text: The flow rate was 3.24 mm/s and the cell scanning speed was 250 μm/s.
The width of each channel is 100 μm, the thickness is 50 μm, and the interchannel spacing is 25 μm. The procedure used for fabricating the microchannels and for patch clamping are identical to that described in Example 2 (see above). The patch clamped cell used was a PC-12 cell, which was placed between 10 to 20 micrometers away from the outlets of the microchannels. Channels 1, 3, 5 and 7 were filled with PBS buffer, while channels 2, 4 and 6 were filled with acetylcholine. The flow rate of the fluid streams was 6.8 mm/s.
The channel structure and experimental setup used in Example 3 can be used to carry out dose-response measurements, in which the concentrations of the ligands in each of the ligand streams differ by predetermined amounts. […] In this 7-channel structure, channels 1, 3, 5 and 7 were filled with PBS buffer, whereas channels 2, 4, and 6 were filled with 1 μM, 12 μM, and 200 μM nicotine, respectively. The flow rate used was 3.24 mm/s and the cell-scanning speed was 250 μm/s. The patch-clamped cell was placed between 10 to 20 μm away from the outlet of the microchannel.

Structures are written as SMILES.

With `CN1CCCC1c1cccnc1` (stereo not drawn) [nicotine], for the setting “1 μM nicotine”, the Whole-cell current response result is recorded as “barely discernible”. Besides, the Whole-cell current peak entry (12 μM nicotine) is recorded as “detected with good signal-to-noise ratio”. The “Current peak at 200 μM relative to peak for 12 μM” value (200 μM vs 12 μM nicotine) is on record as 15 to 20 times.
